One assay concerns COS-7. Briefly: Cytotoxicity against african green monkey COS7 cells after 48 hrs by MTT assay. Type of assay: cell-based. The conditions noted are these: Chlorocebus aethiops, COS-7, 48 h.
The target in assay [1] is T1, Tyrosine-protein phosphatase non-receptor type 1 (Homo sapiens, UniProt P18031).
T1 sequence (P18031 whole entry): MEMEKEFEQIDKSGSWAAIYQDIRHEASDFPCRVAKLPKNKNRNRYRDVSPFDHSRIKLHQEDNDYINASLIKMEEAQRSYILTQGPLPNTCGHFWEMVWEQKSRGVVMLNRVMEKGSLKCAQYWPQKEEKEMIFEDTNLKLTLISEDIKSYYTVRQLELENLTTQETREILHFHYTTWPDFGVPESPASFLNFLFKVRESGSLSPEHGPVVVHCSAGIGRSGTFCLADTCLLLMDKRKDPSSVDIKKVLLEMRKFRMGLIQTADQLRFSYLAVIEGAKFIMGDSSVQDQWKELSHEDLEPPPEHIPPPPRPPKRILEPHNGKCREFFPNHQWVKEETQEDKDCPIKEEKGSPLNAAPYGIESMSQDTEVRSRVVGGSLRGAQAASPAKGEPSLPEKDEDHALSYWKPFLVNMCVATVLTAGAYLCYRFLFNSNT
Briefly: Inhibition of human recombinant PTP1B assessed as inhibition of hydrolysis of […] after 10 mins by spectrophotometry.

Assay [2] addresses T2, Tyrosine-protein phosphatase non-receptor type 2 (Homo sapiens, UniProt P17706).
T2 sequence (P17706 whole entry): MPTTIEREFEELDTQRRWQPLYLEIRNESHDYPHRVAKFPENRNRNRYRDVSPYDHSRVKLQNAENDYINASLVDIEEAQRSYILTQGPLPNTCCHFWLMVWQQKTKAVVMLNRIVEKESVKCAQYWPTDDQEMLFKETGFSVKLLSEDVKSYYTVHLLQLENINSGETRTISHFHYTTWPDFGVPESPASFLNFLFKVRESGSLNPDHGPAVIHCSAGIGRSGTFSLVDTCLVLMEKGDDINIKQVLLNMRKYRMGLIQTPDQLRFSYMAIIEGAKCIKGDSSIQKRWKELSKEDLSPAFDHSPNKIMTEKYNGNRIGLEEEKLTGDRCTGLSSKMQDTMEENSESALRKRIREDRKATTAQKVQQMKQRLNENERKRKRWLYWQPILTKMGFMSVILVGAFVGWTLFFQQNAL
Put plainly: Inhibition of human recombinant TCPTP assessed as inhibition of hydrolysis of […] after 10 mins by spectrophotometry.

For another assay, the species on record is Homo sapiens. Briefly: Selectivity ratio of IC50 for human recombinant TCPT to IC50 for human recombinant PTP1B.

Bounds are passed on as bounds.

These results are taken from ChEMBL document CHEMBL2086338, “Design, synthesis, and evaluation of 2-substituted ethenesulfonic acid ester derivatives as protein tyrosine phosphatase 1B inhibitors” (Eur J Med Chem, 2012).

With `CCOS(=O)(=O)/C=C/c1ccc(OCc2ccccc2)cc1OCCc1csc(-c2ccccc2)n1`, the figures for the IC50 (in the assay with COS-7; in assay [1]; in assay [2]) were more than 100 µM, 38.4 µM and 41.2 µM, respectively.
Consider `CCOS(=O)(=O)/C=C/c1ccc(OCCc2nc(-c3ccccc3)oc2C)cc1`, for which the IC50 – broadly, the point on the concentration scale where inhibition reaches its midpoint – with COS-7 is 84.1 µM; in assay [1], more than 100 µM; in assay [2] it was more than 100 µM.
For `CCOS(=O)(=O)/C=C/c1ccc(OC)c(OCCCCNc2nc(-c3ccccc3)c(-c3ccccc3)s2)c1`, the IC50 in assay [1] was determined as 5.1 µM; in assay [2], 11.6 µM. In addition, in the assay filed under Homo sapiens, the Ratio IC50 is 2.
Take `COC(=O)/C=C/c1ccc(/C=C/c2ccc(O)c(O)c2)cc1`: the IC50 in assay [1] was more than 14.9 µM.
As to `CCOS(=O)(=O)/C=C/c1ccc(OC)c(OCCCCNc2nc(-c3ccccc3)cs2)c1`, the IC50 in assay [1] worked out at 3.3 µM; in assay [2] it was 5.7 µM. Further, the Ratio IC50 in the assay filed under Homo sapiens is 2.
As for `CCCCOS(=O)(=O)/C=C/c1ccc(OCCc2nc(-c3ccccc3)oc2C)cc1`, the IC50 (in the assay with COS-7; in assay [1]; in assay [2]) was more than 100 µM throughout.
As to `CCOS(=O)(=O)/C=C/c1ccc(OCCCNc2nc(-c3ccccc3)cs2)cc1`, the IC50 with COS-7 was more than 100 µM; in assay [1], 24.8 µM; in assay [2], 29.5 µM.
For `CCOS(=O)(=O)/C=C/c1ccc(OCCCCNc2nc(-c3ccccc3)cs2)cc1`, the IC50 with COS-7 was more than 100 µM; in assay [1] it was 22 µM; in assay [2] it was 26.2 µM.
`CCOS(=O)(=O)/C=C/c1ccc(OC)c(OCCCCNc2nc(-c3ccccc3)c(C)s2)c1`: the IC50 in assay [1] worked out at 9.7 µM; in assay [2], 15.6 µM. Also, the Ratio IC50 in the assay filed under Homo sapiens turned out to be 2.
`CCOS(=O)(=O)/C=C/c1ccc(OCCCCNc2nc(-c3ccccc3)c(C)s2)cc1`: the IC50 was 5.8 µM in assay [1] and 10.6 µM in assay [2].
Turning to `O=S(=O)(O)C(F)(F)c1ccc(-c2cccc(F)c2)cc1`, the IC50 in assay [1] came to 5 µM.
With `CCOS(=O)(=O)/C=C/c1ccc(OCCCCNc2nc(-c3cccs3)cs2)cc1`, the IC50 stood at 8.6 µM in assay [1] and 11.2 µM in assay [2]. Also, the Ratio IC50 in the assay filed under Homo sapiens came to 2.
On to `CCOS(=O)(=O)/C=C/c1ccc(OCCCCNc2nc(-c3ccc(F)cc3)cs2)cc1`, for which the results for the IC50 in assay [1] and in assay [2] were 1.3 µM and 14.1 µM, respectively. Further, the Ratio IC50 in the assay listed under Homo sapiens came to 2.
Turning to `CCCCOS(=O)(=O)/C=C/c1ccc(OCc2ccccc2)cc1OCCc1nc(-c2ccccc2)oc1C`, the IC50 (in the assay with COS-7; in assay [1]; in assay [2]) was more than 100 µM in each case.
For `CCOS(=O)(=O)/C=C/c1ccc(OCCCCNc2nc(-c3ccccc3)c(C)s2)c(OC)c1`, the IC50 in assay [1] was 15.1 µM; in assay [2] it was more than 100 µM.
On to `CCOc1ccc(-c2cc(COc3ccc(/C=C/S(=O)(=O)OCC)cc3)no2)cc1`, for which the values for the IC50 (in the assay on COS-7; in assay [1]; in assay [2]) were more than 100 µM, 44.4 µM and more than 100 µM, respectively.
As for `CCOS(=O)(=O)/C=C/c1ccc(OCCNc2nc(-c3ccccc3)cs2)cc1`, the IC50 (in the assay on COS-7; in assay [1]; in assay [2]) was more than 100 µM each time.
For `CCOS(=O)(=O)/C=C/c1ccc(OCc2cc(-c3ccccc3)on2)cc1`, the IC50 (in the assay on COS-7; in assay [1]; in assay [2]) was more than 100 µM each time.
For the compound `CCOS(=O)(=O)/C=C/c1ccc(OCCCCNc2nc(-c3cccc(OC)c3)cs2)cc1`, the IC50 in assay [1] came to 2 µM; in assay [2], 8.2 µM. In addition, in the assay listed under Homo sapiens, the Ratio IC50 came to 2.
As to `CCCCOS(=O)(=O)/C=C/c1ccc(OCCc2csc(-c3ccccc3)n2)cc1`, the IC50 (in the assay with COS-7; in assay [1]; in assay [2]) was more than 100 µM in each case.
Take `CCOS(=O)(=O)/C=C/c1ccc(OCCCCNc2nc(-c3ccccc3F)cs2)cc1`: the IC50 in assay [1] worked out at 2.5 µM; in assay [2] it was 6.4 µM. For the same compound, the Ratio IC50 in the assay listed under Homo sapiens stood at 2.
As for `CCOS(=O)(=O)/C=C/c1ccc(OCCCCNc2nc(-c3cccc4ccccc34)cs2)cc1`, the IC50 in assay [1] was found to be 2.4 µM; in assay [2] it was 8.7 µM. The Ratio IC50 in the assay listed under Homo sapiens is 2.
In the case of `CCOS(=O)(=O)/C=C/c1ccc(OCCCCNc2nc(-c3ccc(Br)cc3)cs2)cc1`, the IC50 in assay [1] turned out to be 1.3 µM; in assay [2], 3.6 µM. The Ratio IC50 in the assay listed under Homo sapiens is 2.
Take `CCOS(=O)(=O)/C=C/c1ccc(OCCCCNc2nc(-c3ccccc3)c(-c3ccccc3)s2)c(OC)c1`: the figures for the IC50 in assay [1] and in assay [2] were 2.6 µM and 8.6 µM, respectively.
For the compound `CCOS(=O)(=O)/C=C/Cc1nc(-c2ccccc2)sc1C`, the half-inhibitory concentration (IC50) (in the assay on COS-7; in assay [1]; in assay [2]) was more than 100 µM each time.
Consider `CCOS(=O)(=O)/C=C/c1ccc(OCc2ccccc2)cc1OCCc1nc(-c2ccccc2)oc1C`, for which the IC50 (with COS-7; in assay [1]; in assay [2]) was more than 100 µM throughout.
As for `CCOS(=O)(=O)/C=C/c1ccc(OCCCCNc2nc(-c3ccccn3)cs2)cc1`, the IC50 in assay [1] is 1.5 µM; in assay [2], 31.9 µM. Further, the Ratio IC50 in the assay listed under Homo sapiens came to 2.
Take `CCOS(=O)(=O)/C=C/c1ccc(OCCCCNc2nc(-c3ccccc3Cl)cs2)cc1`: the IC50 in assay [1] is 1.4 µM; in assay [2], 5 µM. Besides, the Ratio IC50 in the assay listed under Homo sapiens came to 2.
In the case of `CCOS(=O)(=O)/C=C/c1ccc(OCCCCNc2nc(-c3ccc(OC)cc3)cs2)cc1`, the IC50 in assay [1] was 10.4 µM; in assay [2] it was more than 100 µM. Also, the Ratio IC50 in the assay listed under Homo sapiens came to 2.
Turning to `COS(=O)(=O)/C=C/c1ccc(OCc2ccccc2)cc1OCCc1nc(-c2ccccc2)oc1C`, the IC50 is more than 100 µM with COS-7, 24.5 µM in assay [1] and 39.6 µM in assay [2].
As to `CCOS(=O)(=O)/C=C/c1ccc(OCc2ccccc2)cc1OCCc1nc(-c2ccccc2)sc1C`, the IC50 (in the assay with COS-7; in assay [1]; in assay [2]) was more than 100 µM each time.
For `CCOS(=O)(=O)/C=C/c1ccc(OCCCCNc2nc(-c3ccc(-c4ccccc4)cc3)cs2)cc1`, the IC50 is 1.9 µM in assay [1] and 15.7 µM in assay [2]. Moreover, in the assay listed under Homo sapiens, the Ratio IC50 came out at 2.
With `CCOS(=O)(=O)/C=C/c1ccc(OCCCCNc2nc(-c3ccccc3)c(-c3ccccc3)s2)cc1`, the IC50 in assay [1] turned out to be 9.6 µM; in assay [2], 23.4 µM.
